Experimental data as given in article PMC10298926, “Biophysical Characterization of the Binding Mechanism between the MATH Domain of SPOP and Its Physiological Partners” (International Journal of Molecular Sciences, 2023).
Where a SMILES comes first, the peptide text is derived from it.

Experiments:
[1] = target: T1, SPOP MATH D131A (Homo sapiens, UniProt O43791, C159S/C23S/C44S/C68S/C93S/D130A); experiment: Stopped-flow displacement; assay type: binding
T1 construct: engineered MATH domain of SPOP protein (residues 1–182); His-tag; made in house; host or cells: Escherichia coli BL21 (DE3)
Text: (§1) To quantitatively address the role of specific residues in the binding mechanism of SPOP MATH, we resorted to taking advantage of the site-directed mutagenesis and generated ten site-directed mutants corresponding to the residues located in the binding pocket of the SPOP MATH domain. In particular, we produced a set of single mutants where residues R71, Y88, F103, Y124, F125, K130, D131, W132, F134, and K135 were substituted with alanine.
(§2) Microscopic dissociation rate constants (koff) were directly measured by performing displacement experiments on an Applied Photophysics DX-17MV stopped-flow apparatus (Applied Photophysics). A preincubated complex of MATH domain and dansylated peptides at a constant concentration (both 8 µM) was rapidly mixed with an excess of nondansylated peptides (50 μM). The samples were excited at 280 nm and fluorescence emission was collected by using a 330 ± 30 nm bandpass filter. The experiments were performed at 298 K in the same buffer used for the binding experiments. The observed rate constants were calculated from the average of five single traces. The observed kinetics were consistent with a single exponential decay.

[2] = target: T2, SPOP MATH K135A (Homo sapiens, UniProt O43791, C159S/C44S/C68S/C93S/K134A); experiment: Stopped-flow displacement; assay type: binding; conditions: displacement of dansylated Puc, 298 K
T2 construct: engineered MATH domain of SPOP protein (residues 1–182); His-tag; made in house; host or cells: Escherichia coli BL21 (DE3)
Text: as §1, §2

[3] = target: T3, SPOP MATH WT (Homo sapiens, UniProt O43791); experiment: Stopped-flow displacement; assay type: binding; conditions: preincubated complex (both 8 µM) mixed with 50 μM nondansylated peptide, 298 K, average of five single traces
Protocol: (§3) To infer the mechanism of recognition of SPOP MATH, we resorted to performing time-resolved kinetic experiments. SPOP MATH was rapidly mixed with increasing concentrations of dansylated peptides (from 2 to 10 µM for Puc and MacroH2A, and from 2 to 40 µM for PTEN) in a stopped-flow apparatus at 298 K. The binding traces obtained by monitoring the time-resolved fluorescence were satisfactorily fitted to a single exponential equation, allowing calculating the observed rate constants kobs at different peptide concentrations. We then plotted the kobs values over the concentration of dansylated peptide and fitted the data to a simple linear function equation: kobs=kon Peptide+koff where kobs is the observed rate constant; kon and koff are the microscopic association and dissociation rate constants, respectively (Figure 2). The slope and y-axis intercept represent the microscopic association and dissociation rate constant, respectively. To minimize the error associated with the indirect measurement of the dissociation rate constant, we carried out displacement experiments to determine the koff values. The displacement experiments were designed by mixing the preformed complex SPOP MATH-dansylated peptides with a high excess of nondansylated peptide, as described in the Section 4. […] On the basis of these observations, it is possible to conclude that, in the case of binding to MacroH2A and PTEN, there is the presence of an additional step, which escapes detection by stopped-flow experiments and is likely to be negligible in the case of Puc. […] We note that such a case closely resembles the presence of a so-called burst phase, which is frequently observed in protein-folding studies.
Microscopic dissociation rate constants (koff) were directly measured by performing displacement experiments on an Applied Photophysics DX-17MV stopped-flow apparatus (Applied Photophysics). […] The samples were excited at 280 nm and fluorescence emission was collected by using a 330 ± 30 nm bandpass filter. […] The observed rate constants were calculated from the average of five single traces. […]

[4] = target: T3, SPOP MATH WT; experiment: Stopped-flow pseudo-first-order binding kinetics; conditions: 298 K
Protocol: as §3
Binding kinetic experiments were performed on an Applied Photophysics DX-17MV stopped-flow apparatus (Applied Photophysics, Leatherhead, UK). Pseudo-first-order binding experiments were performed by mixing a constant concentration (2 μM) of MATH domain with increasing dansylated peptides concentrations, from 2 to 10 μM of Puc and MacroH2A, and 2 to 40 µM of PTEN. The samples were excited at 280 nm, and the emission fluorescence was recorded by using a bandpass 320 nm cutoff filter. The experiments were performed at 298 K. For ionic strength dependence with Puc and MacroH2A, the buffers used were 50 mM sodium-HEPES, pH 7.2, supplemented with 50 mM, 100 mM, 200 mM, or 500 mM of sodium chloride (NaCl). For the PTEN binding salt dependence experiments, lower concentrations of salt were added for the previous buffer list mentioned (10 mM, 25 mM, and 50 mM of sodium chloride). For each acquisition, five traces were collected, averaged, and satisfactorily fitted to a single exponential equation.

T3 sequence (O43791 1-182): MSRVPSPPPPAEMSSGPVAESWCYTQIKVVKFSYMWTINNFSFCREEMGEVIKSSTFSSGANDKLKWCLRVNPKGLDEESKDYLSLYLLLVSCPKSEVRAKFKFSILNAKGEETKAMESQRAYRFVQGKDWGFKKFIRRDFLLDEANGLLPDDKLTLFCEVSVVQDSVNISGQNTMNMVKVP
T1 sequence (O43791 1-182 C23S/C44S/C68S/C93S/D130A/C159S): as the sequence (O43791 1-182) above, with C23S, C44S, C68S, C93S, D130A, C159S counted along it
T2 sequence (O43791 1-182 C44S/C68S/C93S/K134A/C159S): as the sequence (O43791 1-182) above, with C44S, C68S, C93S, K134A, C159S counted along it

**Q.** How did the koff [1] turn out when CC(C)[C@H](NC(=O)[C@H](CCC(=O)O)NC(=O)[C@H](CC(=O)O)NS(=O)(=O)c1cccc2c(N(C)C)cccc12)C(=O)N[C@H](C(=O)N[C@@H](CO)C(=O)N[C@H](C(=O)N[C@H](C(=O)N[C@@H](CO)C(=O)N[C@@H](CO)C(=O)N[C@@H](CO)C(=O)O)[C@@H](C)O)[C@@H](C)O)[C@@H](C)O [Puc] (HELM PEPTIDE1{[CN(C)c1cccc2c(S(=O)(=O)[*:2])cccc12].D.E.V.T.S.T.T.S.S.S}$$$$V2.0) was run?
**A.** 241 ± 1 s⁻¹

**Q.** And the koff [2]?
**A.** 45.2 ± 0.4 s⁻¹

**Q.** What about the koff [3] of the same molecule?
**A.** 26.1 ± 0.1 s⁻¹

**Q.** And the Kd ([4]; read-out: Kinetics KD, WT, from kon (pseudo-first-order) and koff (displacement))?
**A.** 1400 ± 400 nM

**Q.** And the kon ([4]; stopped-flow, 2 µM MATH domain, dansylated peptide 2 to 10 µM (Puc, MacroH2A) or 2 to 40 µM (PTEN), 50 mM sodium-HEPES, pH 7.2 (for ionic strength series), five traces averaged, slope of kobs vs peptide)?
**A.** 19 ± 1 µM⁻¹ s⁻¹
